From the Deep4Chem optical property database
Each block holds one molecule with its values, some of them ahead of it.

Experiment: photoluminescence quantum yield (fraction); solvent given as SMILES
[1] = in c1cc(-n2c3ccccc3c3ccccc32)cc(-n2c3ccccc3c3ccccc32)c1

SMILES: COC(=O)c1[nH]c(-c2ccc(Br)cc2)c2nnc3ccc(OC)cc3c12
photoluminescence quantum yield (in ClCCl): 0.114

SMILES: COc1cccc(/C=C/c2ccccc2)c1
photoluminescence quantum yield (in C1CCCCC1): 0.18
photoluminescence quantum yield (in CC#N): 0.16
photoluminescence quantum yield (in CC(C)O): 0.15
photoluminescence quantum yield (in CCCCOCCCC): 0.2
photoluminescence quantum yield (in CCOC(C)=O): 0.18
photoluminescence quantum yield (in CCOCC): 0.18

SMILES: CC[Si](CC)(CC)c1cc2ccc3cccc4ccc(c1C(=O)NC(C)(C)C)c2c34
photoluminescence quantum yield (in ClC(Cl)Cl): 0.162

SMILES: c1cc2c3c(cccc3c1)-c1c-2ccc2ccc3ccccc3c12
photoluminescence quantum yield (in CCCCCCC): 0.14

SMILES: Fc1ccc(C#Cc2cc(C#Cc3ccc(F)cc3)c(C#Cc3ccc(F)cc3)c(C#Cc3ccc(F)cc3)c2C#Cc2ccc(F)cc2)cc1
photoluminescence quantum yield (in ClCCl): 0.43

SMILES: CC(C)(C)c1ccc(C2=C(c3ccc(C(C)(C)C)cc3)C(c3ccc(C(C)(C)C)cc3)=[N+]3C2=C(c2ccccc2)c2c(-c4ccc(C(C)(C)C)cc4)c(-c4ccc(C(C)(C)C)cc4)c(-c4ccc(C(C)(C)C)cc4)n2[B-]3(F)F)cc1
photoluminescence quantum yield (in C1CCCCC1): 0.32
photoluminescence quantum yield (in C1CCOC1): 0.3
photoluminescence quantum yield (in CC#N): 0.25
photoluminescence quantum yield (in Cc1ccccc1): 0.57
photoluminescence quantum yield (in ClCCl): 0.45

SMILES: O=S(=O)(c1ccc(-c2ccc(-c3nc4c5ccccc5c5ccccc5c4n3-c3ccccc3)cc2)cc1)c1ccc(-c2ccc(-c3nc4c5ccccc5c5ccccc5c4n3-c3ccccc3)cc2)cc1
photoluminescence quantum yield (in C1CCOC1): 0.847
photoluminescence quantum yield (in CC#N): 0.579
photoluminescence quantum yield (in CC(C)=O): 0.779
photoluminescence quantum yield (in CC(C)OC(C)C): 0.81
photoluminescence quantum yield (in CCCCCC): 0.676
photoluminescence quantum yield (in CCCCOCCCC): 0.85
photoluminescence quantum yield (in CCN(CC)CC): 0.102
photoluminescence quantum yield (in CCOC(C)=O): 0.89
photoluminescence quantum yield (in CCOCC): 0.992
photoluminescence quantum yield (in CN(C)C=O): 0.775
photoluminescence quantum yield (in ClC(Cl)Cl): 1
photoluminescence quantum yield (in ClCCl): 0.824
photoluminescence quantum yield (in c1ccc2c(c1)c1ccccc1n2-c1ccc(-c2ccc(-n3c4ccccc4c4ccccc43)cc2)cc1): 0.72

SMILES: c1ccc(-c2nc(-c3ccccc3)nc(-c3ccc(-n4c5ccccc5c5c6c(ccc54)C4(c5ccccc5-c5ccccc54)c4ccccc4-6)cc3)n2)cc1
photoluminescence quantum yield (in O=P(c1ccccc1)(c1ccccc1)c1ccccc1Oc1ccccc1P(=O)(c1ccccc1)c1ccccc1): 0.45

SMILES: CCn1c2ccccc2c2cc(/C=C/c3cccc(/C=C/c4ccc5c(c4)c4ccccc4n5CC)[n+]3CCCS(=O)(=O)[O-])ccc21
photoluminescence quantum yield (in C1CCOC1): 0.1
photoluminescence quantum yield (in CC#N): 0.03
photoluminescence quantum yield (in CC(C)=O): 0.03
photoluminescence quantum yield (in Cc1ccccc1): 0.08

SMILES: CCC1(CC)c2cc(B(c3c(C)cc(C)cc3C)c3c(C)cc(C)cc3C)ccc2-c2c1c1c(c3c2C(CC)(CC)c2cc(N(c4ccccc4)c4ccccc4)ccc2-3)C(CC)(CC)c2cc(N(c3ccccc3)c3ccccc3)ccc2-1
photoluminescence quantum yield (in C1CCOC1): 0.21

SMILES: COc1ccc(C2=[N+]3C(=Cc4c5ccc(OC)cc5c(-c5ccc(OC)cc5)n4[B-]3(F)F)c3ccc(OC)cc32)cc1
photoluminescence quantum yield (in ClCCl): 0.49

SMILES: COC(=O)C(NC(=O)OC(C)(C)C)c1ccc2oc(-c3cc(C(F)(F)F)cc(C(F)(F)F)c3)nc2c1 (centres undefined)
photoluminescence quantum yield (in CC1CCCCC1): 0.54
photoluminescence quantum yield (in CC#N): 0.46
photoluminescence quantum yield (in CO): 0.44

SMILES: O=C1OC(c2ccccc2)=N/C1=C\c1ccc(N(c2ccccc2)c2ccccc2)cc1
photoluminescence quantum yield (in C1CCCCC1): 0.031
photoluminescence quantum yield (in C1CCOC1): 0.108
photoluminescence quantum yield (in C1COCCO1): 0.045
photoluminescence quantum yield (in CC1CCCCC1): 0.043
photoluminescence quantum yield (in CC#N): 0.014
photoluminescence quantum yield (in CC(C)=O): 0.055
photoluminescence quantum yield (in CC(C)CC(C)(C)C): 0.028
photoluminescence quantum yield (in CCCCC): 0.029
photoluminescence quantum yield (in CCCCCC): 0.031
photoluminescence quantum yield (in CCCCCCC): 0.034
photoluminescence quantum yield (in CCCCOCCCC): 0.036
photoluminescence quantum yield (in CCOC(C)=O): 0.095
photoluminescence quantum yield (in CCOCC): 0.072
photoluminescence quantum yield (in CN(C)C=O): 0.014
photoluminescence quantum yield (in CS(C)=O): 0.012
photoluminescence quantum yield (in Cc1ccccc1): 0.034
photoluminescence quantum yield (in ClC(Cl)Cl): 0.028

SMILES: c1ccc(-c2ccc(-c3ccccc3)cc2)cc1
photoluminescence quantum yield (in C1COCCO1): 0.55

SMILES: CCN(CC)c1ccc2c(-c3ccccc3C(=O)O)c3c([o+]c2c1)/C(=C/Nc1ccccc1)CCC3
photoluminescence quantum yield (in CCO): 0.35
photoluminescence quantum yield (in ClC(Cl)Cl): 0.35
photoluminescence quantum yield (in ClCCl): 0.6

SMILES: Nc1cccc2cc3ccccc3cc12
photoluminescence quantum yield (in C1CCCCC1): 0.8

SMILES: Cc1cccc(Nc2ccccc2C(=O)O)c1C
photoluminescence quantum yield (in C1CCCCC1): 0.0049
photoluminescence quantum yield (in C1CCOC1): 0.0074
photoluminescence quantum yield (in C1COCCO1): 0.0035
photoluminescence quantum yield (in CC#N): 0.0013
photoluminescence quantum yield (in CCOC(C)=O): 0.0032
photoluminescence quantum yield (in CN(C)C=O): 0.0013

SMILES: C[Si]1(C)c2cc(-c3ccc(-c4cccs4)s3)ccc2C=Cc2ccc(-c3ccc(-c4cccs4)s3)cc21
photoluminescence quantum yield (in ClCCl): 0.46

SMILES: COc1cnc(-c2cc[n+](C3=C(F)C(F)(F)C(F)(F)[C-]3F)cc2)s1
photoluminescence quantum yield (in CC#N): 0.64
photoluminescence quantum yield (in CC(C)=O): 0.44
photoluminescence quantum yield (in CCO): 0.21
photoluminescence quantum yield (in CN(C)C=O): 0.04
photoluminescence quantum yield (in CO): 0.08
photoluminescence quantum yield (in CS(C)=O): 0.02
photoluminescence quantum yield (in ClC(Cl)Cl): 0.73
photoluminescence quantum yield (in ClCCl): 0.76

SMILES: CC1=CC(C)=[N+]2C1=C(c1c3ccccc3c(-c3ccccc3)c3ccccc13)c1c(C)cc(C)n1[B-]2(F)F
photoluminescence quantum yield (in CC#N): 0.007
photoluminescence quantum yield (in CCCCCC): 0.9
photoluminescence quantum yield (in CCO): 0.02
photoluminescence quantum yield (in CN(C)C=O): 0.01
photoluminescence quantum yield (in Cc1ccccc1): 0.79
photoluminescence quantum yield (in ClCCl): 0.024

SMILES: CC(C)(C)c1ccc(C#Cc2cc(C#Cc3ccc(C(C)(C)C)cc3)c(C#Cc3ccc(C(C)(C)C)cc3)c(C#Cc3ccc(C(C)(C)C)cc3)c2C#Cc2ccc(C(C)(C)C)cc2)cc1
photoluminescence quantum yield (in ClCCl): 0.41

Further lines, results first:

photoluminescence quantum yield (in C1CCOC1): 0.0033
SMILES: C(=C1c2ccccc2CCc2ccccc21)c1ccc(-c2ccc(C=C3c4ccccc4CCc4ccccc43)cc2)cc1

photoluminescence quantum yield (in ClCCl): 0.02
SMILES: CN(C)c1ccc(/C=C/c2nc(/C=C/c3ccc(N(C)C)cc3)c3ccccc3n2)cc1

photoluminescence quantum yield (in ClCCl): 0.24
SMILES: CC(C)c1cccc(C(C)C)c1N1C(=O)c2ccc3c(-c4ccccc4)c4c5ccc6c7c(ccc(c(-c8ccccc8)c4c4ccc(c2c34)C1=O)c75)C(=O)N(c1c(C(C)C)cccc1C(C)C)C6=O

photoluminescence quantum yield [1]: 0.38
SMILES: c1ccc(-c2nc(-c3ccccc3)nc(-c3ccc(-c4ccc(N5c6ccccc6[Si](c6ccccc6)(c6ccccc6)c6ccccc65)cc4)cc3)n2)cc1

photoluminescence quantum yield (in CCO): 0.618
photoluminescence quantum yield (in ClCCl): 0.724
photoluminescence quantum yield (in O): 0.282
SMILES: CC[N+](CC)=c1ccc2cc3c(oc-2c1)-c1ccc(N(C)C)cc1CC3

photoluminescence quantum yield (in C1COCCO1): 0.048
photoluminescence quantum yield (in CC#N): 0.033
photoluminescence quantum yield (in CCO): 0.028
photoluminescence quantum yield (in CCOC(C)=O): 0.041
photoluminescence quantum yield (in O): 0.013
SMILES: CN1C(=O)/C(=C/c2ccncc2)N=C1/C=C/c1ccncc1

photoluminescence quantum yield (in C1COCCO1): 0.108
SMILES: COc1ccc(C2=C/C(=C\c3ccccc3)C(=O)N2)cc1OC

photoluminescence quantum yield (in ClCCl): 0.37
SMILES: Cc1ccc2nc3cc4c5c(cccc5c3nc2c1)C(c1ccccc1)=C(c1ccccc1)O4

photoluminescence quantum yield (in CS(C)=O): 0.66
SMILES: CCCCCCCCn1c2ccccc2c(=O)c2ccccc21

photoluminescence quantum yield (in CS(C)=O): 0.2
SMILES: c1csc(-c2nc3ccccc3c3cc4ccccn4c23)c1

photoluminescence quantum yield (in C1COCCO1): 0.423
photoluminescence quantum yield (in CC(C)O): 0.549
photoluminescence quantum yield (in CCCCCC): 0.502
photoluminescence quantum yield (in CCCCCCC): 0.689
photoluminescence quantum yield (in CCCCCCCC): 0.701
photoluminescence quantum yield (in CCCCCCCCO): 0.317
photoluminescence quantum yield (in CCO): 0.783
photoluminescence quantum yield (in CO): 0.518
SMILES: COc1ncccc1B(O)O

photoluminescence quantum yield (in CC#N): 0.41
SMILES: CCOC(=O)c1c2c3c(ccc(F)c3c3cc4ccccc4cc13)N(C)C2=O

photoluminescence quantum yield (in CCO): 0.111
SMILES: CC1(C)CC(/C=C/c2ccc(N3CCOCCOCCOCCOCC3)cc2)=CC(=C(C#N)C#N)C1

photoluminescence quantum yield (in ClCCl): 0.73
SMILES: c1cc(-c2c3ccccc3c(-c3ccc4ccccc4c3)c3ccccc23)cc(-n2c3ccccc3c3ccccc32)c1

photoluminescence quantum yield (in ClC(Cl)Cl): 0.24
SMILES: CCCCCCc1cc(-c2ccc3c(c2)C2CCCC2N3c2ccc3c(c2)C(C)(C)c2ccccc2-3)sc1/C=C1\C(=O)c2ccc(C(=O)O)cc2C1=O (centres undefined)

photoluminescence quantum yield (in ClC(Cl)Cl): 0.01
photoluminescence quantum yield (in O): 0.0008
SMILES: C/C=C/C=C/C1=NC(=C\c2ccc(O)cc2)/C(=O)N1C

photoluminescence quantum yield (in ClC(Cl)Cl): 0.09
SMILES: Cc1ccc(/C2=c3\cc/c(o3)=C(\c3ccc(C)cc3)c3ccc([nH]3)-c3ccc4n3[B-](F)(F)[N+]3=C(C=CC3=C4c3cccs3)c3ccc2[nH]3)cc1

photoluminescence quantum yield (in ClCCl): 0.00154
SMILES: CCOC(=O)C1=C(C(=O)OCC)C2(c3ccccc3-c3ccccc32)[C@@H](c2ccccc2)C=C2c3cc(OC)c(OC)cc3CCN21

photoluminescence quantum yield (in CS(C)=O): 0.25
photoluminescence quantum yield (in ClCCl): 0.9
SMILES: CCN(CC)c1ccc2c(c1)oc(=O)c1c(=O)oc3cc(Br)ccc3c12

photoluminescence quantum yield (in CC#N): 0.83
photoluminescence quantum yield (in CCCCCC): 0.91
photoluminescence quantum yield (in CCOC(C)=O): 0.9
photoluminescence quantum yield (in CO): 0.85
photoluminescence quantum yield (in ClCCl): 0.93
SMILES: CCc1c(C)c2n(c1C)[B-](F)(F)[N+]1=C(NCc3ccc(OC)cc3)C(SC#N)=CC1=C2C

photoluminescence quantum yield (in ClCCl): 0.058
SMILES: Cc1cc2c3ccccc3sc2c2[nH]c3ccccc3c12

photoluminescence quantum yield (in CCO): 0.163
photoluminescence quantum yield (in ClCCl): 0.336
photoluminescence quantum yield (in O): 0.039
SMILES: CC[N+](CC)=c1ccc2c(C(F)(F)F)c3c(oc-2c1)-c1ccc(N(C)C)cc1CC3

photoluminescence quantum yield [1]: 0.12
SMILES: O=C(c1ccccc1)c1cc2ccc1CCc1ccc(cc1-c1ccc(N(c3ccccc3)c3ccccc3)cc1)CC2

photoluminescence quantum yield (in C1CCOC1): 0.79
photoluminescence quantum yield (in CC#N): 0.76
photoluminescence quantum yield (in CCO): 0.77
photoluminescence quantum yield (in CS(C)=O): 0.78
photoluminescence quantum yield (in ClCCl): 0.76
SMILES: c1ccc2c(c1)c1ccccc1c1[nH]c(-c3ccc(-c4nc5c6ccccc6c6ccccc6c5[nH]4)cc3)nc21

photoluminescence quantum yield (in ClCCl): 0.35
SMILES: CCCCN(CCCC)c1ccc2c#cc3cc4c#cc5ccc(C(F)(F)F)cc5c#cc#cc5cc(C(F)(F)F)ccc5c#cc4cc3c#cc3ccc(N(CCCC)CCCC)cc3c#cc#cc2c1

photoluminescence quantum yield (in ClC(Cl)Cl): 0.188
SMILES: Cc1cccc(C2=Cc3c4ccccc4c4ccccc4[n+]3[B-](F)(F)O2)c1

photoluminescence quantum yield (in ClCCl): 0.55
SMILES: COC(=O)c1ccc(Oc2ccc3c4c(cccc24)C(=O)N(c2c(C(C)C)cccc2C(C)C)C3=O)cc1
